The test system of assay [1] is L-363 cells. Description: Biological Assay C: antiproliferative activity on L-363 cells (CellTiter-Glo). The assay is classed as cell-based. To be noted: Homo sapiens, 72 hr treatment. The protocol: (§1) Determination of Antiproliferative Activity on LP-1, L-363 and JJN-3 Cells
(§2) All compounds tested were dissolved in DMSO and further dilutions were made in culture medium. Final DMSO concentration was 0.3% (v/v) in cell proliferation assays. Viability was assessed using CellTiter-Glo cell viability assay kit (Promega). The human LP-1, L-363 and JJN-3 cells (DSMZ) were cultured in RPMI 1640 medium supplemented with 2 mM L-glutamine, and 10% fetal calf serum (PAA). Cells were routinely kept as suspension cells at 37° C. in a humidified 5% CO2 atmosphere. Cells were passaged at a seeding density of 0.2×10^6/ml twice a week. Cells were seeded in black tissue culture treated 96-well plates (Perkin Elmer). Densities used for plating ranged from 2,000 to 6,000 cells per well in a total volume of 75 μl medium. After twenty four hours, drugs and/or solvents were added (25 μl) to a final volume of 100 μl. Following 72 hr of treatment plates were removed from the incubator and allowed to equilibrate to room temperature for approx 10 min. 100 μl CellTiter-Glo reagent was added to each well that was then covered (Perkin Elmer Topseal) and shaken on plate shaker for 10 min. Luminescence was measured on a HTS Topcount (Perkin Elmer). Within an experiment, the results for each treatment were the mean of 2 replicate wells. For initial screening purposes, compounds were tested using a 9 point dilution curve (serial 1:3 dilutions). For each experiment, controls (containing no drug) and a blank incubation (containing cells read at the time of compound addition) were run in parallel. The blank value was subtracted from all control and sample values. For each sample, the mean value for cell growth (in relative light units) was expressed as a percentage of the mean value for cell growth of the control.

The subject of assay [2] is P-IKKα levels in L363 cells. Nature of the assay: Biological Assay B: effect of compounds on P-IKKα levels in L363 cells. To be noted: Homo sapiens, L-363, BAFF stimulated, 2 hr treatment, averaged over all batches, read-out: IKKα Cellular IC50. It is filed as cell-based. The protocol:
Effect of Compounds on P-IKKα Levels in L363 Cells
All compounds tested were dissolved in DMSO and further dilutions were made in culture medium. Final DMSO concentration was 1% (v/v) in cell assays. The human L363 cells (ATCC) were cultured in RPMI 1640 medium supplemented with GlutaMax and 10% fetal calf serum (PAA). Cells were routinely maintained at densities of 0.2×10^6 cells per ml-1×10^6 cells per ml at 37° C. in a humidified 5% CO2 atmosphere. Cells were passaged twice a week splitting back to obtain the low density. Cells were seeded in 96 well plates (Nunc 167008) at 2×10^6 per ml media in a volume of 75 μl per well plus 25 μl 1 μg/ml recombinant human B-cell activating factor (BAFF/BLyS/TNFSF13B). Seeded cells were incubated at 37° C. in a humidified 5% CO2 atmosphere for 24 hr. Drugs and/or solvents were added (20 μl) to a final volume of 120 μl. Following 2 hr treatment plates were removed from the incubator and cell lysis was achieved by the addition of 30 μl 5× lysis buffer followed by shaking on a plate shaker at 4° C. for 10 min. At the end of this incubation lysed cells were centrifuged at 800×g for 20 min at 4° C. and the lysate was assessed for P-IKKα levels by sandwich immuno-assay carried out in anti-rabbit antibody coated Mesoscale plates. Within an experiment, the results for each treatment were the mean of 2 replicate wells. For initial screening purposes, compounds were tested using an 8 point dilution curve (serial 1:3 dilutions). For each experiment, controls (containing MG132 and BAFF but no test drug) and a blank incubation (containing MG132 and BAFF and 10 μM ADS125117, a test concentration known to give full inhibition) were run in parallel. The blank incubation value was subtracted from all control and sample values. To determine the IC50 a sigmoidal curve was fitted to the plot of % inhibition of control P-IKKα levels versus Log10 compound concentration.

Assay [3] has as its target T1, Recombinant Human NF-kappaB-Inducing Kinase (NIK/MAP3K14) (Homo sapiens, UniProt Q99558). Nature of the assay: Biological Assay A: inhibition of recombinant human NIK/MAP3K14 activity (MSD, MBP substrate). The note with it: 25 μM ATP, 10 nM NIK/MAP3K14, 1 h at 25° C.; averaged over all batches; read-out: Biochemical (MSD MBP) IC50. The protocol:
Inhibition of Recombinant Human NF-kappaB-Inducing Kinase (NIKIMAP3K14) Activity
Assay buffer was 50 mM Tris pH 7.5 containing 1 mM ethylene glycol tetraacetic acid (EGTA), 1 mM dithiothreitol (DTT), 0.1 mM Na3VO4, 5 mM MgCl2, 0.01% Tween® 20. Assays were carried out in 384 well Mesoscale high binding plates which had been coated with myelin basic protein (MBP) and blocked with bovine serum albumin to prevent non-specific protein binding. All compounds tested were dissolved in dimethyl sulfoxide (DMSO) and further dilutions were made in assay buffer. Final DMSO concentration was 1% (v/v) in assays. Incubations consisted of compound (1% DMSO in control and blank wells), 25 μM Adenosine-5′-triphosphate (ATP), and 10 nM NIK/MAP3K14 substituting enzyme with buffer in the blank wells. Incubations were carried out for 1 h at 25° C. and were followed by washing and sequential incubation with rabbit anti-phospho-MBP and anti-rabbit Ig Sulfotag antibody before reading bound Sulfotag on a Mesoscale Discovery. Signal obtained in the wells containing blank samples was subtracted from all other wells and IC50's were determined by fitting a sigmoidal curve to % inhibition of control versus Log10 compound concentration.

The subject of assay [4] is LP-1 cells. Description: Biological Assay C: antiproliferative activity on LP-1 cells (CellTiter-Glo). The assay is classed as cell-based. To be noted: Homo sapiens, 72 hr treatment. On the procedure: as §1, §2
(In general: ATP-based viability assays read luminescence as a measure of living cells.)

Assay [5] deals with JJN-3 cells. Description: Biological Assay C: antiproliferative activity on JJN-3 cells (CellTiter-Glo). It is filed as cell-based. To be noted: Homo sapiens, 72 hr treatment. On the procedure: as §1, §2
The target of assay [6] is T1, Recombinant Human NF-kappaB-Inducing Kinase (NIK/MAP3K14). Nature of the assay: Biological Assay A2: inhibition of auto-phosphorylation of recombinant human NIK/MAP3K14 (AlphaScreen). It is filed as biochemical. The note with it: 25 microM ATP, 0.2 nM NIK/MAP3K14, 1 h at 25° C., averaged over all batches, read-out: Alpha-Screen IC50. On the procedure: Inhibition of Auto-Phosphorylation of Recombinant Human NF-kappaB-Inducing Kinase (NIKIMAP3K14) Activity (AlphaScreen®)
NIK/MAP3K14 auto-phosphorylation activity was measured using the AlphaScreen® (ascreen) format (Perkin Elmer). All compounds tested were dissolved in dimethyl sulfoxide (DMSO) and further dilutions were made in assay buffer. Final DMSO concentration was 1% (v/v) in assays. Assay buffer was 50 mM Tris pH 7.5 containing 1 mM EGTA (ethylene glycol tetraacetic acid), 1 mM DTT (dithiothreitol), 0.1 mM Na3VO4, 5 mM MgCl2, 0.01% Tween® 20. Assays were carried out in 384 well Alphaplates (Perkin Elmer). Incubations consisted of compound, 25 microM Adenosine-5′-triphosphate (ATP), and 0.2 nM NIK/MAP3K14. Incubations were initiated by addition of GST-tagged NIK/MAP3K14 enzyme, carried out for 1 h at 25° C. and terminated by addition of stop buffer containing anti-phospho-IKK Ser176/180 antibody. Protein A Acceptor and Glutathione-Donor beads were added before reading using an EnVision® Multilabel Plate Reader (Perkin Elmer). Signal obtained in the wells containing blank samples was subtracted from all other wells and IC50's were determined by fitting a sigmoidal curve to % inhibition of control versus Log10 compound concentration.
For orientation: In Alpha technology, singlet oxygen from a donor bead excites a nearby acceptor bead.

SMILES strings stand for the structures.

T1 sequence (Q99558 whole entry): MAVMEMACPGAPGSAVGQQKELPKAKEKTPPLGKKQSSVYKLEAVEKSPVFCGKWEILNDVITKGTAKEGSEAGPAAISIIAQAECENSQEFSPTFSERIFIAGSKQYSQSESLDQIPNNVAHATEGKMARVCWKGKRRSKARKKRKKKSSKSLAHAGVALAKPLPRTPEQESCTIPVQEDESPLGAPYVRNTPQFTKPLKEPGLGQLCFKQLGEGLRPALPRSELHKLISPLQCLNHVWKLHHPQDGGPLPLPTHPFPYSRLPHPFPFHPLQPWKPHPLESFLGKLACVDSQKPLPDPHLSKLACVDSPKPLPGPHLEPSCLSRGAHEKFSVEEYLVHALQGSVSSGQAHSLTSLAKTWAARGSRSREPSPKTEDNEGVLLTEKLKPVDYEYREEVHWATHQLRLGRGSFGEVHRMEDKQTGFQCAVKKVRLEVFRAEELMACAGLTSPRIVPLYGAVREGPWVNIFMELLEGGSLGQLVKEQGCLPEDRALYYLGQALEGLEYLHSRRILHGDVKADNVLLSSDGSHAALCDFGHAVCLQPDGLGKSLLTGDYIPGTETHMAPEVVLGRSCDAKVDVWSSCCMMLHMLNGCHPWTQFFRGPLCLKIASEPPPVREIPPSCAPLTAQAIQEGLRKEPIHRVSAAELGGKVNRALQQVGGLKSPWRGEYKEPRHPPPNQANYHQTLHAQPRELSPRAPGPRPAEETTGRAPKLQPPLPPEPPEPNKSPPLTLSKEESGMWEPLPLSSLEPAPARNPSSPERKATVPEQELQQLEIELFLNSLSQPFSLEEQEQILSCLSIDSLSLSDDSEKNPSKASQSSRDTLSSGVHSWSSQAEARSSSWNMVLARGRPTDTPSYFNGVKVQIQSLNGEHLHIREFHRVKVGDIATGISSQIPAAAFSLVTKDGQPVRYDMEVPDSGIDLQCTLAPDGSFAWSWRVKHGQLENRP

`Nc1nccc(-n2ccc3cnc(C#CC4(O)CCCC4)cc32)n1` [Compound 1]: the figures for the EC50 in assay [1], in assay [4] and in assay [5] were 673 nM, 929 nM and 320 nM, respectively. Besides, the figures for the IC50 in assay [2] and in assay [3] were 13 nM and 8.9 nM, respectively.
Turning to `CN(C)C(=O)c1cn(-c2ccnc(N)n2)c2cc(C#CC(C)(C)O)ncc12` [Compound 2], the figures for the EC50 in assay [1], in assay [4] and in assay [5] were 5030 nM, > 30000 nM and 3320 nM, respectively. The IC50 (in general, the concentration that inhibits the measured activity by half) in assay [2] amounted to 1060 nM; in assay [3], 73 nM; in assay [6], 180 nM.
As to `CC(C)(O)C#Cc1cc2c(ccn2-c2ccnc(N)n2)cn1` [Compound 3], the results for the EC50 in assay [1], in assay [4] and in assay [5] were 43 nM, 84 nM and 46 nM, respectively. The IC50 in assay [2] is 13 nM.
`Nc1nccc(-n2ccc3cnc(C#CC4(O)CC4)cc32)n1` [Compound 4]: the EC50 – broadly, the concentration needed to bring the measured effect to its halfway point – was determined as 62 nM in assay [1], 122 nM in assay [4] and 56 nM in assay [5]. The IC50 in assay [2] is 7.3 nM; in assay [3], 3.9 nM; in assay [6] it was 5.6 nM.
Consider `CC(O)(C#Cc1cc2c(ccn2-c2ccnc(N)n2)cn1)c1nccs1` (stereo not shown) [Compound 5], for which the EC50 in assay [1] was 2920 nM; in assay [4], 3310 nM; in assay [5], 237 nM. Further, the figures for the IC50 in assay [2], in assay [3] and in assay [6] were 18 nM, 2.4 nM and 10 nM, respectively.
As for `CNc1nccc(-n2ccc3cnc(C#CC(C)(C)O)cc32)n1` [Compound 6], the figures for the EC50 in assay [1], in assay [4] and in assay [5] were 774 nM, 929 nM and 744 nM, respectively. Besides, the IC50 in assay [2] was 204 nM; in assay [3], 55 nM; in assay [6], 80 nM.
As for `CC(C)(O)C#Cc1cc2c(ccn2-c2nc(N)ncc2Cl)cn1` [Compound 7], the values for the EC50 in assay [1], in assay [4] and in assay [5] were 977 nM, 1900 nM and 1050 nM, respectively. The half-inhibitory concentration (IC50) was found to be 163 nM in assay [2], 3.8 nM in assay [3] and 16 nM in assay [6].
Consider `Nc1ncc(Cl)c(-n2ccc3cnc(C#CC4(O)CC4)cc32)n1` [Compound 8], for which the values for the EC50 in assay [1], in assay [4] and in assay [5] were 1560 nM, 2330 nM and 1590 nM, respectively. Further, the IC50 came out at 104 nM in assay [2], 12 nM in assay [3] and 24 nM in assay [6].
As for `Nc1ncc(Cl)c(-n2ccc3cnc(C#CC4(O)CCCC4)cc32)n1` [Compound 9], the results for the EC50 in assay [1], in assay [4] and in assay [5] were 15400 nM, 37200 nM and 1830 nM, respectively. The half-maximal inhibitory concentration (IC50) came out at 101 nM in assay [2], 2.8 nM in assay [3] and 11 nM in assay [6].
As to `CC(O)(C#Cc1cc2c(ccn2-c2nc(N)ncc2Cl)cn1)c1nccs1` (stereo not shown) [Compound 10], the EC50 in assay [1] stood at 12800 nM; in assay [4], 28000 nM; in assay [5] it was 1220 nM. The IC50 in assay [2] came out at 89 nM; in assay [3] it was 5.1 nM; in assay [6], 18 nM.
With `Cc1cnc(N)nc1-n1ccc2cnc(C#CC(C)(C)O)cc21` [Compound 11], the concentration for a half-maximal effect (EC50) in assay [1] was 3770 nM; in assay [4], 5840 nM; in assay [5], 2720 nM. The IC50 in assay [2] was 330 nM; in assay [3] it was 115 nM; in assay [6], 232 nM.
Consider `CC(C)(O)C#Cc1cc2c(ccn2-c2nc(N)ncc2F)cn1` [Compound 12], for which the results for the EC50 in assay [1], in assay [4] and in assay [5] were 133 nM, 282 nM and 132 nM, respectively. In addition, the IC50 was found to be 25 nM in assay [2], 77 nM in assay [3] and 13 nM in assay [6].
In the case of `Nc1ncc(F)c(-n2ccc3cnc(C#CC4(O)CCCC4)cc32)n1` [Compound 13], the values for the EC50 in assay [1], in assay [4] and in assay [5] were 4260 nM, 3270 nM and 872 nM, respectively. For the same molecule, the concentration for half-maximal inhibition (IC50) in assay [2] amounted to 44 nM; in assay [3], 18 nM; in assay [6], 7.7 nM.
As to `CC(C)(O)C#Cc1cc2c(cn1)c(C(N)=O)cn2-c1ccnc(N)n1` [Compound 14], the figures for the EC50 in assay [1], in assay [4] and in assay [5] were 12700 nM, > 30000 nM and 10700 nM, respectively. Moreover, the values for the IC50 in assay [2], in assay [3] and in assay [6] were 1240 nM, 28 nM and 185 nM, respectively.
Consider `[2H]C([2H])([2H])C(O)(C#Cc1cc2c(cn1)c(C1CCN(Cc3ccccc3)CC1)cn2-c1ccnc(N)n1)C([2H])([2H])[2H]` [Compound 52], for which the 50% effective concentration (EC50) is 49 nM in assay [1], 65 nM in assay [4] and 89 nM in assay [5]. Further, in assay [6], the 50% inhibitory concentration (IC50) was 31 nM.
The like results for `[2H]C([2H])([2H])N1CCC(c2cn(-c3ccnc(N)n3)c3cc(C#CC(O)(C([2H])([2H])[2H])C([2H])([2H])[2H])ncc23)CC1` [Compound 53] were, in that order, 12 nM, 107 nM, 32 nM and 35 nM.
The corresponding values for `Cc1cc(C(C)(O)C#Cc2cc3c(cn2)c(C2CCN(C)CC2)cn3-c2ccnc(N)n2)no1` (stereo not shown) [Compound 54] are 213 nM, 2530 nM, 656 nM and 42 nM.
The like results for `CN1CCC(c2cn(-c3ccnc(N)n3)c3cc(C#CC(C)(O)c4nccs4)ncc23)CC1` (stereo not shown) [Compound 56] were, in that order, 1240 nM, 7890 nM, 2490 nM and 26 nM.

The values are drawn from patent US10005773B2, “1-(4-pyrimidinyl)-1H-pyrrolo[3,2-c]pyridine derivatives as NIK inhibitors” (Janssen Pharmaceutica NV, priority 2013, dated 2018).
